Source: patent publication US7897601B2, “Cannabinoid receptor modulators” (Intervet, Inc., priority 2006, dated 2011)

Biological target: T1, cannabinoid CB1 (Homo sapiens, UniProt P21554)
T1 construct: purchased
Test: Competition binding assay for cannabinoid CB1 affinity (3H-CP55,940 displacement)
Procedure: Competition binding assays for cannabinoid CB1 and CB2 affinity were performed by incubating commercially purchased membranes prepared from cells expressing each receptor subtype (8 μg pro) with 0.5 nM ^3H-CP55,940, a non-selective cannabinoid agonist, along with concentrations of drug ranging from 0.0001-3 μM in Buffer A (5 mM MgCl2, 2.5 mM EDTA and […] BSA). Non-specific binding was defined in the presence of 10 μM CP55,940. For saturation studies, concentrations of ^3H-CP55,940 ranging from 0.1-5 nM were incubated with membranes in the presence and absence of 10 μM CP55,940. Assays were terminated after incubation for 1½ hours by rapid filtration onto 0.3% polyethylenamine treated GF/C filterplates using a BRANDEL cell harvester. […]
The dissociation constant (Kd) of ^3H-CP55,940 at the CB1 and CB2 receptor were determined by plotting specific binding at each concentration of radioligand, and analysis by non-linear regression. For competition studies, the concentration of each drug that inhibited 50 percent of ^3H-CP55,940 binding (IC50) was determined by non-linear regression analysis of the radioligand displacement curves. Affinity constants (Ki) were calculated using the equation derived by Cheng and Prusoff (1973), defined as: IC50/1+[conc. ligand/Kd].

T1 sequence (P21554 whole entry): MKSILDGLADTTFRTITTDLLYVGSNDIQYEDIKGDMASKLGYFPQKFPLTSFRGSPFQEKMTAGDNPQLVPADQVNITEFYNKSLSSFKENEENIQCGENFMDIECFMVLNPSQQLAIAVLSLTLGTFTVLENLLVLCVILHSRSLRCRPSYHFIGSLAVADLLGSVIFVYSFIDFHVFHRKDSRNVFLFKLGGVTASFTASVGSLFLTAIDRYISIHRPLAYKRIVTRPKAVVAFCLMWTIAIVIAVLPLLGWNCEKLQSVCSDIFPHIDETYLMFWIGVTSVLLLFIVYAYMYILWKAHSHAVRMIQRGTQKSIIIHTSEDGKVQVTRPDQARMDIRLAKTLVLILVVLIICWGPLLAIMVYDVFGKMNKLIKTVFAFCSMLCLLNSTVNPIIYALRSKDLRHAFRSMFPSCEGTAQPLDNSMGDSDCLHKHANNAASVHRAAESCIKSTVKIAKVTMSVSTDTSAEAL

Structure (SMILES): O=C(NC1CCCC1)C1CCC(c2ccc(Cl)cc2)=C(c2ccc(Cl)cc2)C1 (stereo not shown) [Compound 180]
- Ki: 1 to 10 nM
